One data set can be described thus: Maximum Tolerated Dose. The settings on record: male, BALB/c, mouse, in vivo, intravenous; mice.
For data set [1], the system named is hematopoietic stem cells CD34+ and EPCs CD133+. The data set is described as follows: Stem cell and endothelial progenitor cell mobilization into peripheral blood. Type of data set: in vivo, BALB/c mice. Conditions: for Fold increase at 1 mg/Kg, CD34+ / Fold increase at Maximum Tolerated Dose (MTD), CD34+: CD34+ cells in circulation; for Fold increase at 1 mg/Kg, CD34+ / Fold increase at Maximum Tolerated Dose (MTD), CD34+ / Fold increase at 1 mg/Kg, CD133+ / Fold increase at Maximum Tolerated Dose (MTD), CD133+: mice; for Fold increase at Maximum Tolerated Dose (MTD), CD34+ / Fold increase at Maximum Tolerated Dose (MTD), CD133+: MTD (125: 15 mg/kg, 136: 30 mg/Kg); for Fold increase at 1 mg/Kg, CD133+ / Fold increase at Maximum Tolerated Dose (MTD), CD133+: CD133+ cells in circulation; for Fold increase in circulation, CD34+ / Fold increase in circulation, CD133+: Table 2, 125 at 15 mg/Kg, G-CSF at 50 ug/kg/d × 4, alone or combined; for mobilization of hematopoietic stem cells CD34+ and EPCs CD133+ into peripheral blood: animal studies. Here is the method:
The in vivo efficacy of these two compounds in mobilizing stem cells was tested in male Special Pathogens Free (SPF) BALB/c mice. Different concentrations of a compound solution were prepared and administrated either intravenously of intramuscularly into mice. Mice receiving saline were used as a control. Whole blood was collected at 3 hours after i.v. injection or 6 hours after i.m. injection by cardiac puncture. Total leukocytes were resuspended in PBS and cell numbers were counted using trypan blue exclusion. Cells numbers were adjusted to 6×10^4 in 0.1 mL PBS for antibody staining. CXCR4^+ cells, CD34^+ cells, and CD133^+ cells were counted using surface staining and flow cytometry analysis. Data represents mean ±SEM of four independent experiments. Levels of cell number in different groups were compared using One-way ANOVA, differences were considered significant if P values were <0.05.

For orientation: MTD means the highest dose tested that stayed within the study's limit of toxicity. Low values mean poorer tolerability, high ones better tolerability.

In the data set “Maximum Tolerated Dose”, `c1ccc(CNCCN(CCNCc2ccccn2)Cc2ccc(CNCc3nc4ccccc4[nH]3)cc2)nc1` [Compound 125, N-(4-{[(1H-benzoimidazol-2-ylmethyl)-amino]-methyl}-benzyl)-N′-pyridin-2-ylmethyl-N-{2-[(pyridin-2-ylmethyl)-amino]-ethyl}-ethane-1,2-diamine] had an MTD of 15 mg/kg. In data set [1], the “Fold increase at 1 mg/Kg, CD34+” value turned out to be 3.99 fold; the “Fold increase at Maximum Tolerated Dose (MTD), CD34+” value turned out to be 6.58 fold; the “Fold increase at 1 mg/Kg, CD133+” value is 2.24 fold; the “Fold increase at Maximum Tolerated Dose (MTD), CD133+” value is on record as 5.77 fold. Besides, in data set [1], the “Fold increase in circulation, CD34+” value is listed as 7.1 fold; the “Fold increase in circulation, CD133+” value is reported as 6.0 fold; the “mobilization of hematopoietic stem cells CD34+ and EPCs CD133+ into peripheral blood” value is “rapidly mobilized”.

As for `COc1ccc2[nH]c(CNCc3ccc(CN(CCNCc4ccccn4)CCNCc4ccccn4)cc3)nc2c1` [Compound 136, N1-(4-(((5-methoxy-1H-benzo[d]imidazol-2-yl)methylamino)methyl)benzyl)-N2-(pyridin-2-ylmethyl)-N1-(2-(pyridin-2-ylmethylamino)-ethyl)ethane-1,2-diamine], the MTD in “Maximum Tolerated Dose” is 30 mg/kg. Further, in data set [1], the “Fold increase at 1 mg/Kg, CD34+” value is reported as 2.63 fold; the “Fold increase at Maximum Tolerated Dose (MTD), CD34+” value was determined as 5.66 fold; the “Fold increase at 1 mg/Kg, CD133+” value is 3.17 fold; the “Fold increase at Maximum Tolerated Dose (MTD), CD133+” value stood at 8.49 fold. For the same molecule, the “mobilization of hematopoietic stem cells CD34+ and EPCs CD133+ into peripheral blood” value in data set [1] was “rapidly mobilized”.

B1: G-CSF: granulocyte-colony stimulating factor; growth factor for stem cells and EPCs currently used in clinics (protein, UniProt P09919 31-207, looked up)
Granulocyte …: TPLGPASSLPQSFLLKCLEQVRKIQGDGAALQEKLVSECATYKLCHPEELVLLGHSLGIPWAPLSSCPSQALQLAGCLSQLHSGLFLYQGLLQALEGISPELGPTLDTLQLDVADFATTIWQQMEELGMAPALQPTQGAMPAFASAFQRRAGGVLVASHLQSFLEVSYRVLRHLAQP
In the case of B1, in data set [1], the “Fold increase in circulation, CD34+” value is on record as 8.4 fold and the “Fold increase in circulation, CD133+” value was 26.2 fold.

(Values after patent US7504422B2, “Polyamine compounds” (Taigen Biotechnology Co. Ltd., priority 2003, dated 2009).)
